# Source: patent US20230123334A1, “AMINO LIPID COMPOUND, PREPARATION METHOD THEREFOR, AND APPLICATION THEREOF” (SHENZHEN SHENXIN BIOTECHNOLOGY CO., LTD., priority 2020, published 2023)
# Tested on: HEK293 cells
# Experiment: Preliminary screening as mRNA vectors, EGFP mRNA transfection of HEK293 cells
# Assay type: cell-based
# Settings: HEK293 cells, 96-well plates, EGFP mRNA 50 ng per well; percentage of GFP fluorescent cells relative to total number of cells (Hoechst)
# How it was run: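 Screening format: EGFP mRNA transfection (50 ng/well) into HEK293 in 10% FBS-supplemented DMEM. Percent green fluorescent cells, normalised to Hoechst nuclear count, gave the value; Lipofectamine2000 was the reference transfectant.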
row,SMILES,Absolute mRNA transfection efficiency in HEK293 cells
1,CCCCCCCCCCCCCCCCNc1nc(NCCCCCCC)nc(NCCN2CCN(C)CC2)n1 [Compound N7N16D5],0.0%
2,CCCCCCCCCCCCCCCCNc1nc(NCCCCCCC)nc(NCCCN(C)C)n1 [Compound N7N16D6],5.0%
3,CCCCCCCCCCCCCCCCNc1nc(NCCCCCCC)nc(NCCN(CC)CC)n1 [Compound N7N16D7],0.4%
4,CCCCCCCCCCCCCCCCNc1nc(NCCCCCCC)nc(NCCCN2CCOCC2)n1 [Compound N7N16D8],0.0%
5,CCCCCCCCCCCCCCCCNc1nc(NCCCCCCC)nc(NCCCN2CCN(C)CC2)n1 [Compound N7N16D9],0.0%
6,CCCCCCCCCCCCCCCCNc1nc(NCCCCCCC)nc(NCC2CCN(C)CC2)n1 [Compound N7N16D10],3.1%
7,CCCCCCCCCCCCCCCCCCNc1nc(NCCCCCCC)nc(NCCN(C)C)n1 [Compound N7N18D1],2.3%
8,CCCCCCCCCCCCCCCCCCNc1nc(NCCCCCCC)nc(NCCN2CCOCC2)n1 [Compound N7N18D2],0.0%
9,CCCCCCCCCCCCCCCCCCNc1nc(NCCCCCCC)nc(NCCN2CCCC2)n1 [Compound N7N18D3],0.1%
10,CCCCCCCCCCCCCCCCCCNc1nc(NCCCCCCC)nc(NCCN2CCCCC2)n1 [Compound N7N18D4],0.1%
11,CCCCCCCCCCCCCCCCCCNc1nc(NCCCCCCC)nc(NCCN2CCN(C)CC2)n1 [Compound N7N18D5],0.1%
12,CCCCCCCCCCCCCCCCCCNc1nc(NCCCCCCC)nc(NCCCN(C)C)n1 [Compound N7N18D6],1.1%
13,CCCCCCCCCCCCCCCCCCNc1nc(NCCCCCCC)nc(NCCN(CC)CC)n1 [Compound N7N18D7],0.0%
14,CCCCCCCCCCCCCCCCCCNc1nc(NCCCCCCC)nc(NCCCN2CCOCC2)n1 [Compound N7N18D8],0.2%
15,CCCCCCCCCCCCCCCCCCNc1nc(NCCCCCCC)nc(NCCCN2CCN(C)CC2)n1 [Compound N7N18D9],0.5%
16,CCCCCCCCCCCCCCCCCCNc1nc(NCCCCCCC)nc(NCC2CCN(C)CC2)n1 [Compound N7N18D10],73.8%
17,CCCCCCCCNc1nc(NCCCCCCCC)nc(NCCN(C)C)n1 [Compound N8N8D1],0.0%
18,CCCCCCCCNc1nc(NCCCCCCCC)nc(NCCN2CCOCC2)n1 [Compound N8N8D2],0.0%
19,CCCCCCCCNc1nc(NCCCCCCCC)nc(NCCN2CCCC2)n1 [Compound N8N8D3],0.4%
20,CCCCCCCCNc1nc(NCCCCCCCC)nc(NCCN2CCCCC2)n1 [Compound N8N8D4],0.2%
21,CCCCCCCCNc1nc(NCCCCCCCC)nc(NCCN2CCN(C)CC2)n1 [Compound N8N8D5],0.0%
22,CCCCCCCCNc1nc(NCCCCCCCC)nc(NCCCN(C)C)n1 [Compound N8N8D6],0.0%

row,SMILES,Absolute mRNA transfection efficiency in HEK293 cells
1,CCCCCCCCNc1nc(NCCCCCCCC)nc(NCCN(CC)CC)n1 [Compound N8N8D7],0.0%
2,CCCCCCCCNc1nc(NCCCCCCCC)nc(NCCCN2CCOCC2)n1 [Compound N8N8D8],0.0%
3,CCCCCCCCNc1nc(NCCCCCCCC)nc(NCCCN2CCN(C)CC2)n1 [Compound N8N8D9],0.0%
4,CCCCCCCCNc1nc(NCCCCCCCC)nc(NCC2CCN(C)CC2)n1 [Compound N8N8D10],0.0%
5,CCCCCCCCCNc1nc(NCCCCCCCC)nc(NCCN(C)C)n1 [Compound N8N9D1],0.8%
6,CCCCCCCCCNc1nc(NCCCCCCCC)nc(NCCN2CCOCC2)n1 [Compound N8N9D2],0.3%
7,CCCCCCCCCNc1nc(NCCCCCCCC)nc(NCCN2CCCC2)n1 [Compound N8N9D3],0.5%
8,CCCCCCCCCNc1nc(NCCCCCCCC)nc(NCCN2CCCCC2)n1 [Compound N8N9D4],0.0%
9,CCCCCCCCCNc1nc(NCCCCCCCC)nc(NCCN2CCN(C)CC2)n1 [Compound N8N9D5],0.0%
10,CCCCCCCCCNc1nc(NCCCCCCCC)nc(NCCCN(C)C)n1 [Compound N8N9D6],0.0%
11,CCCCCCCCCNc1nc(NCCCCCCCC)nc(NCCN(CC)CC)n1 [Compound N8N9D7],0.0%
12,CCCCCCCCCNc1nc(NCCCCCCCC)nc(NCCCN2CCOCC2)n1 [Compound N8N9D8],0.0%
13,CCCCCCCCCNc1nc(NCCCCCCCC)nc(NCCCN2CCN(C)CC2)n1 [Compound N8N9D9],0.0%
14,CCCCCCCCCNc1nc(NCCCCCCCC)nc(NCC2CCN(C)CC2)n1 [Compound N8N9D10],0.2%
15,CCCCCCCCCCCNc1nc(NCCCCCCCC)nc(NCCN(C)C)n1 [Compound N8N11D1],0.0%
16,CCCCCCCCCCCNc1nc(NCCCCCCCC)nc(NCCN2CCOCC2)n1 [Compound N8N11D2],0.0%
17,CCCCCCCCCCCNc1nc(NCCCCCCCC)nc(NCCN2CCCC2)n1 [Compound N8N11D3],4.2%
18,CCCCCCCCCCCNc1nc(NCCCCCCCC)nc(NCCN2CCCCC2)n1 [Compound N8N11D4],0.2%
19,CCCCCCCCCCCNc1nc(NCCCCCCCC)nc(NCCN2CCN(C)CC2)n1 [Compound N8N11D5],0.4%
20,CCCCCCCCCCCNc1nc(NCCCCCCCC)nc(NCCCN(C)C)n1 [Compound N8N11D6],0.1%
21,CCCCCCCCCCCNc1nc(NCCCCCCCC)nc(NCCN(CC)CC)n1 [Compound N8N11D7],0.0%
22,CCCCCCCCCCCNc1nc(NCCCCCCCC)nc(NCCCN2CCOCC2)n1 [Compound N8N11D8],0.1%

# Tested on: HEK293 cells
# Experiment: Preliminary screening as DNA vectors, GFP transfection of HEK293 cells
# Assay type: cell-based
# Settings: HEK293 cells; lipid/DOPE liposome with 75 ng plasmid DNA (psin-EGFP-IRES-Puro); number of cells expressing GFP divided by total number of nuclei (Hoechst)
# How it was run: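 First, amino lipid and DOPE were vortexed in sodium acetate buffer (pH 5.6) to form liposomes. Next, these were held with 75 ng EGFP plasmid at room temperature for 30 min. Finally, HEK293 cells were added, cultured at 37° C., Hoechst-stained, and GFP+/total nuclei scored by imaging.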
row,SMILES,Absolute DNA transfection efficiency in HEK293 cells
1,CCCCCCCCCCCCCCCCNc1nc(NCCCCCCC)nc(NCCN2CCN(C)CC2)n1 [Compound N7N16D5],0.3%
2,CCCCCCCCCCCCCCCCNc1nc(NCCCCCCC)nc(NCCCN(C)C)n1 [Compound N7N16D6],0.6%
3,CCCCCCCCCCCCCCCCNc1nc(NCCCCCCC)nc(NCCN(CC)CC)n1 [Compound N7N16D7],0.0%
4,CCCCCCCCCCCCCCCCNc1nc(NCCCCCCC)nc(NCCCN2CCOCC2)n1 [Compound N7N16D8],0.1%
5,CCCCCCCCCCCCCCCCNc1nc(NCCCCCCC)nc(NCCCN2CCN(C)CC2)n1 [Compound N7N16D9],0.0%
6,CCCCCCCCCCCCCCCCNc1nc(NCCCCCCC)nc(NCC2CCN(C)CC2)n1 [Compound N7N16D10],1.8%
7,CCCCCCCCCCCCCCCCCCNc1nc(NCCCCCCC)nc(NCCN(C)C)n1 [Compound N7N18D1],1.0%
8,CCCCCCCCCCCCCCCCCCNc1nc(NCCCCCCC)nc(NCCN2CCOCC2)n1 [Compound N7N18D2],0.0%
9,CCCCCCCCCCCCCCCCCCNc1nc(NCCCCCCC)nc(NCCN2CCCC2)n1 [Compound N7N18D3],5.0%
10,CCCCCCCCCCCCCCCCCCNc1nc(NCCCCCCC)nc(NCCN2CCCCC2)n1 [Compound N7N18D4],0.2%
11,CCCCCCCCCCCCCCCCCCNc1nc(NCCCCCCC)nc(NCCN2CCN(C)CC2)n1 [Compound N7N18D5],0.7%
12,CCCCCCCCCCCCCCCCCCNc1nc(NCCCCCCC)nc(NCCCN(C)C)n1 [Compound N7N18D6],0.7%
13,CCCCCCCCCCCCCCCCCCNc1nc(NCCCCCCC)nc(NCCN(CC)CC)n1 [Compound N7N18D7],0.0%
14,CCCCCCCCCCCCCCCCCCNc1nc(NCCCCCCC)nc(NCCCN2CCOCC2)n1 [Compound N7N18D8],0.2%
15,CCCCCCCCCCCCCCCCCCNc1nc(NCCCCCCC)nc(NCCCN2CCN(C)CC2)n1 [Compound N7N18D9],2.1%
16,CCCCCCCCCCCCCCCCCCNc1nc(NCCCCCCC)nc(NCC2CCN(C)CC2)n1 [Compound N7N18D10],15.6%
17,CCCCCCCCNc1nc(NCCCCCCCC)nc(NCCN(C)C)n1 [Compound N8N8D1],2.3%
18,CCCCCCCCNc1nc(NCCCCCCCC)nc(NCCN2CCOCC2)n1 [Compound N8N8D2],0.0%
19,CCCCCCCCNc1nc(NCCCCCCCC)nc(NCCN2CCCC2)n1 [Compound N8N8D3],1.8%
20,CCCCCCCCNc1nc(NCCCCCCCC)nc(NCCN2CCCCC2)n1 [Compound N8N8D4],0.0%
21,CCCCCCCCNc1nc(NCCCCCCCC)nc(NCCN2CCN(C)CC2)n1 [Compound N8N8D5],0.0%
22,CCCCCCCCNc1nc(NCCCCCCCC)nc(NCCCN(C)C)n1 [Compound N8N8D6],0.0%

row,SMILES,Absolute DNA transfection efficiency in HEK293 cells
1,CCCCCCCCNc1nc(NCCCCCCCC)nc(NCCN(CC)CC)n1 [Compound N8N8D7],0.0%
2,CCCCCCCCNc1nc(NCCCCCCCC)nc(NCCCN2CCOCC2)n1 [Compound N8N8D8],0.0%
3,CCCCCCCCNc1nc(NCCCCCCCC)nc(NCCCN2CCN(C)CC2)n1 [Compound N8N8D9],0.7%
4,CCCCCCCCNc1nc(NCCCCCCCC)nc(NCC2CCN(C)CC2)n1 [Compound N8N8D10],0.0%
5,CCCCCCCCCNc1nc(NCCCCCCCC)nc(NCCN(C)C)n1 [Compound N8N9D1],0.0%
6,CCCCCCCCCNc1nc(NCCCCCCCC)nc(NCCN2CCOCC2)n1 [Compound N8N9D2],0.0%
7,CCCCCCCCCNc1nc(NCCCCCCCC)nc(NCCN2CCCC2)n1 [Compound N8N9D3],0.5%
8,CCCCCCCCCNc1nc(NCCCCCCCC)nc(NCCN2CCCCC2)n1 [Compound N8N9D4],0.0%
9,CCCCCCCCCNc1nc(NCCCCCCCC)nc(NCCN2CCN(C)CC2)n1 [Compound N8N9D5],0.0%
10,CCCCCCCCCNc1nc(NCCCCCCCC)nc(NCCCN(C)C)n1 [Compound N8N9D6],0.4%
11,CCCCCCCCCNc1nc(NCCCCCCCC)nc(NCCN(CC)CC)n1 [Compound N8N9D7],0.0%
12,CCCCCCCCCNc1nc(NCCCCCCCC)nc(NCCCN2CCOCC2)n1 [Compound N8N9D8],0.0%
13,CCCCCCCCCNc1nc(NCCCCCCCC)nc(NCCCN2CCN(C)CC2)n1 [Compound N8N9D9],0.0%
14,CCCCCCCCCNc1nc(NCCCCCCCC)nc(NCC2CCN(C)CC2)n1 [Compound N8N9D10],0.5%
15,CCCCCCCCCCCNc1nc(NCCCCCCCC)nc(NCCN(C)C)n1 [Compound N8N11D1],0.4%
16,CCCCCCCCCCCNc1nc(NCCCCCCCC)nc(NCCN2CCOCC2)n1 [Compound N8N11D2],0.0%
17,CCCCCCCCCCCNc1nc(NCCCCCCCC)nc(NCCN2CCCC2)n1 [Compound N8N11D3],3.6%
18,CCCCCCCCCCCNc1nc(NCCCCCCCC)nc(NCCN2CCCCC2)n1 [Compound N8N11D4],0.2%
19,CCCCCCCCCCCNc1nc(NCCCCCCCC)nc(NCCN2CCN(C)CC2)n1 [Compound N8N11D5],0.2%
20,CCCCCCCCCCCNc1nc(NCCCCCCCC)nc(NCCCN(C)C)n1 [Compound N8N11D6],0.3%
21,CCCCCCCCCCCNc1nc(NCCCCCCCC)nc(NCCN(CC)CC)n1 [Compound N8N11D7],0.0%
22,CCCCCCCCCCCNc1nc(NCCCCCCCC)nc(NCCCN2CCOCC2)n1 [Compound N8N11D8],0.0%
